Earlier results on one molecule are cited in patent US20090092692A1, “The use of onion extracts to prevent and treat acute and chronic cardiac and vascular complications and their sequelae, as well as to resolve hematomas” (priority 2007, published 2009).

In the data set the test system is platelet. The note with it: low doses of aspirin, vasoocclusive disease.

With `CC(=O)Oc1ccccc1C(=O)O` [aspirin, Acetyl salicylic acid], the “incidence of major haemorrhage” value is given as “less than 1%” and the “major outcome (death or further MI)” value is “approximately 60%”.
